# Data published in the supplement of paper PMC10307832.
# What was measured:
# Assay in all cases: relative viability (nuclei count vs DMSO), 5 days (fraction); higher = more cells survive
# [1] = system: 201T
# Outline: (§1)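 For relative viability, nuclei counts in treated wells were divided by those in vehicle wells. Lung cancer cell lines had been pin-tool dosed in 1536-well plates the day after seeding and cultured for 5 days, then fixed and stained in one step (final 0.05% Triton X-100, 1% formaldehyde, 1 ug/ml Hoechst) and imaged at 4×. Doses were one drug alone or a fixed anchor-drug dose plus five library-drug doses (not always all listed) in √10 steps, and values are duplicate-plate medians.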
# [2] = system: A-427
# Outline: as §1
# [3] = system: COR-L23
# Outline: as §1
# [4] = system: H3255
# Outline: as §1
# [5] = system: LCLC-103H
# Outline: as §1
# [6] = system: LCLC-97TM1
# Outline: as §1
# [7] = system: LK-2
# Outline: as §1
# [8] = system: LU99A
# Outline: as §1
# [9] = system: NCI-H1563
# Outline: as §1
# [10] = system: NCI-H1650
# Outline: as §1
# [11] = system: NCI-H1651
# Outline: as §1
# [12] = system: NCI-H1793
# Outline: as §1
# [13] = system: NCI-H1944
# Outline: as §1
# [14] = system: NCI-H2347
# Outline: as §1
# [15] = system: NCI-H23
# Outline: as §1
# [16] = system: NCI-H460
# Outline: as §1
# [17] = system: NCI-H650
# Outline: as §1
# [18] = system: NCI-H727
# Outline: as §1
# [19] = system: NCI-H838
# Outline: as §1
# [20] = system: PC-14
# Outline: as §1
# [21] = system: PC-3 [JPC-3]
# Outline: as §1
# [22] = system: RERF-LC-KJ
# Outline: as §1
# [23] = system: SW 1573
# Outline: as §1
# [24] = system: SW 900
# Outline: as §1
smiles,measurement,setting,value
Clc1ccc(Nc2nnc(Cc3ccncc3)c3ccccc23)cc1 [Vatalanib] + CCNC(=O)c1noc(-c2cc(C(C)C)c(O)cc2O)c1-c1ccc(CN2CCOCC2)cc1 [Luminespib] (partner 0.01 µM),relative viability,[1]; first compound 0.04 µM,1.07
same,relative viability,[1]; first compound 0.1265 µM,1.05
same,relative viability,[1]; first compound 0.4 µM,1.13
same,relative viability,[1]; first compound 1.265 µM,1.04
same,relative viability,[1]; first compound 4 µM,1.13
same,relative viability,[2]; first compound 0.04 µM,0.861
same,relative viability,[2]; first compound 0.1265 µM,0.909
same,relative viability,[2]; first compound 0.4 µM,1.03
same,relative viability,[2]; first compound 1.265 µM,0.927
same,relative viability,[2]; first compound 4 µM,0.948
same,relative viability,[3]; first compound 0.04 µM,0.715
same,relative viability,[3]; first compound 0.1265 µM,0.666
same,relative viability,[3]; first compound 0.4 µM,0.835
same,relative viability,[3]; first compound 1.265 µM,0.646
same,relative viability,[3]; first compound 4 µM,0.588
same,relative viability,[4]; first compound 0.04 µM,0.881
same,relative viability,[4]; first compound 0.1265 µM,0.91
same,relative viability,[4]; first compound 0.4 µM,0.82
same,relative viability,[4]; first compound 1.265 µM,0.743
same,relative viability,[4]; first compound 4 µM,0.838
same,relative viability,[5]; first compound 0.04 µM,0.961
same,relative viability,[5]; first compound 0.1265 µM,0.878
same,relative viability,[5]; first compound 0.4 µM,0.967
same,relative viability,[5]; first compound 1.265 µM,0.969
same,relative viability,[5]; first compound 4 µM,1
same,relative viability,[6]; first compound 0.04 µM,0.715
same,relative viability,[6]; first compound 0.1265 µM,0.808
same,relative viability,[6]; first compound 0.4 µM,0.741
same,relative viability,[6]; first compound 1.265 µM,0.725
same,relative viability,[6]; first compound 4 µM,0.951
same,relative viability,[7]; first compound 0.04 µM,0.185
same,relative viability,[7]; first compound 0.1265 µM,0.217
same,relative viability,[7]; first compound 0.4 µM,0.188
same,relative viability,[7]; first compound 1.265 µM,0.202
same,relative viability,[7]; first compound 4 µM,0.182
same,relative viability,[8]; first compound 0.04 µM,0.255
same,relative viability,[8]; first compound 0.1265 µM,0.238
same,relative viability,[8]; first compound 0.4 µM,0.264
same,relative viability,[8]; first compound 1.265 µM,0.286
same,relative viability,[8]; first compound 4 µM,0.246
same,relative viability,[9]; first compound 0.04 µM,0.493
same,relative viability,[9]; first compound 0.1265 µM,0.539
same,relative viability,[9]; first compound 0.4 µM,0.519
same,relative viability,[9]; first compound 1.265 µM,0.495
same,relative viability,[9]; first compound 4 µM,0.56
same,relative viability,[10]; first compound 0.04 µM,0.21
same,relative viability,[10]; first compound 0.1265 µM,0.193
same,relative viability,[10]; first compound 0.4 µM,0.206
same,relative viability,[10]; first compound 1.265 µM,0.203
same,relative viability,[10]; first compound 4 µM,0.208
same,relative viability,[11]; first compound 0.04 µM,0.852
same,relative viability,[11]; first compound 0.1265 µM,0.891
same,relative viability,[11]; first compound 0.4 µM,0.878
same,relative viability,[11]; first compound 1.265 µM,0.869
same,relative viability,[11]; first compound 4 µM,0.915
same,relative viability,[12]; first compound 0.04 µM,0.156
same,relative viability,[12]; first compound 0.1265 µM,0.19
same,relative viability,[12]; first compound 0.4 µM,0.192
same,relative viability,[12]; first compound 1.265 µM,0.166
same,relative viability,[12]; first compound 4 µM,0.2
same,relative viability,[13]; first compound 0.04 µM,0.796
same,relative viability,[13]; first compound 0.1265 µM,0.687
same,relative viability,[13]; first compound 0.4 µM,0.845
same,relative viability,[13]; first compound 1.265 µM,0.679
same,relative viability,[13]; first compound 4 µM,0.752
same,relative viability,[14]; first compound 0.04 µM,0.416
same,relative viability,[14]; first compound 0.1265 µM,0.425
same,relative viability,[14]; first compound 0.4 µM,0.254
same,relative viability,[14]; first compound 1.265 µM,0.549
same,relative viability,[14]; first compound 4 µM,0.509
same,relative viability,[15]; first compound 0.04 µM,0.229
same,relative viability,[15]; first compound 0.1265 µM,0.213
same,relative viability,[15]; first compound 0.4 µM,0.227
same,relative viability,[15]; first compound 1.265 µM,0.19
same,relative viability,[15]; first compound 4 µM,0.205
same,relative viability,[16]; first compound 0.04 µM,0.0407
same,relative viability,[16]; first compound 0.1265 µM,0.0276
same,relative viability,[16]; first compound 0.4 µM,0.0374
same,relative viability,[16]; first compound 1.265 µM,0.0261
same,relative viability,[16]; first compound 4 µM,0.0364
same,relative viability,[17]; first compound 0.04 µM,0.821
same,relative viability,[17]; first compound 0.1265 µM,0.628
same,relative viability,[17]; first compound 1.265 µM,0.736
same,relative viability,[17]; first compound 4 µM,0.781
same,relative viability,[18]; first compound 0.04 µM,0.339
same,relative viability,[18]; first compound 0.1265 µM,0.289
same,relative viability,[18]; first compound 0.4 µM,0.329
same,relative viability,[18]; first compound 1.265 µM,0.635
same,relative viability,[18]; first compound 4 µM,0.392
same,relative viability,[19]; first compound 0.04 µM,0.326
same,relative viability,[19]; first compound 0.1265 µM,0.267
same,relative viability,[19]; first compound 0.4 µM,0.244
same,relative viability,[19]; first compound 1.265 µM,0.305
same,relative viability,[19]; first compound 4 µM,0.378
same,relative viability,[20]; first compound 0.04 µM,0.155
same,relative viability,[20]; first compound 0.1265 µM,0.19
same,relative viability,[20]; first compound 1.265 µM,0.158
same,relative viability,[20]; first compound 4 µM,0.149
same,relative viability,[21]; first compound 0.04 µM,0.697
same,relative viability,[21]; first compound 0.1265 µM,0.688
same,relative viability,[21]; first compound 0.4 µM,0.7
same,relative viability,[21]; first compound 1.265 µM,0.706
same,relative viability,[21]; first compound 4 µM,0.723
same,relative viability,[22]; first compound 0.04 µM,1.17
same,relative viability,[22]; first compound 0.1265 µM,1.22
same,relative viability,[22]; first compound 0.4 µM,1.2
same,relative viability,[22]; first compound 1.265 µM,1.05
same,relative viability,[22]; first compound 4 µM,1.07
same,relative viability,[23]; first compound 0.04 µM,0.425
same,relative viability,[23]; first compound 0.1265 µM,0.321
same,relative viability,[23]; first compound 0.4 µM,0.302
same,relative viability,[23]; first compound 1.265 µM,0.437
same,relative viability,[23]; first compound 4 µM,0.264
same,relative viability,[24]; first compound 0.1265 µM,0.178
same,relative viability,[24]; first compound 0.4 µM,0.224
same,relative viability,[24]; first compound 1.265 µM,0.166
same,relative viability,[24]; first compound 4 µM,0.192
